Laboratory results reported in the supplement of paper PMC10307832.

How the values were obtained:
Experiment in all cases: relative viability (nuclei count vs DMSO), 5 days (fraction); higher = more cells survive
[1] = compound: CN1C=C(C2=CC=CC=C21)/C=C\3/C4=C(C=CC=N4)NC3=O + O=C(CCCCCCC(=O)Nc1ccccc1)NO [Vorinostat] (partner 1 µM)
In short: (§1)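 One day after seeding in 1536-well plates, lung cancer cell lines were dosed by pin tool. Dosing was either single-drug or a fixed anchor-drug dose plus five library-drug doses (not always all listed) in √10 steps. After 5 days, nuclei were stained in one fix-and-stain step and counted on 4× images, and relative viability is the nuclei count of treated wells over that of vehicle wells, given as the median of duplicate plates.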

[2] = compound: CN1C=C(C2=CC=CC=C21)/C=C\3/C4=C(C=CC=N4)NC3=O + O=C(c1cc(Cc2n[nH]c(=O)c3ccccc23)ccc1F)N1CCN(C(=O)C2CC2)CC1 [Olaparib] (partner 8 µM)
In short: as §1

Trametinib + Crizotinib = compound: CC(=O)Nc1cccc(-n2c(=O)n(C3CC3)c(=O)c3c(Nc4ccc(I)cc4F)n(C)c(=O)c(C)c32)c1 [Trametinib] + C[C@@H](Oc1cc(-c2cnn(C3CCNCC3)c2)cnc1N)c1c(Cl)ccc(F)c1Cl [Crizotinib] (partner 1 µM)
In short: as §1

Trametinib + Alpelisib = compound: CC(=O)Nc1cccc(-n2c(=O)n(C3CC3)c(=O)c3c(Nc4ccc(I)cc4F)n(C)c(=O)c(C)c32)c1 [Trametinib] + Cc1nc(NC(=O)N2CCC[C@H]2C(N)=O)sc1-c1ccnc(C(C)(C)C(F)(F)F)c1 [Alpelisib] (partner 2 µM)
In short: as §1

UMC-11
relative viability ([1]; first compound 0.02 µM): 0.323 | relative viability ([1]; first compound 0.06325 µM): 0.301 | relative viability ([1]; first compound 0.2 µM): 0.322 | relative viability ([1]; first compound 0.6325 µM): 0.391 | relative viability ([1]; first compound 2 µM): 0.36 | relative viability ([2]; first compound 0.02 µM): 0.461 | relative viability ([2]; first compound 0.06325 µM): 0.333 | relative viability ([2]; first compound 0.2 µM): 0.356 | relative viability ([2]; first compound 0.6325 µM): 0.381 | relative viability ([2]; first compound 2 µM): 0.47 | relative viability (Trametinib + Crizotinib; first compound 0.0025 µM): 0.634 | relative viability (Trametinib + Crizotinib; first compound 0.007906 µM): 0.591 | relative viability (Trametinib + Crizotinib; first compound 0.025 µM): 0.679 | relative viability (Trametinib + Crizotinib; first compound 0.07906 µM): 0.647 | relative viability (Trametinib + Crizotinib; first compound 0.25 µM): 0.566 | relative viability (Trametinib + Alpelisib; first compound 0.0025 µM): 0.904 | relative viability (Trametinib + Alpelisib; first compound 0.007906 µM): 0.981 | relative viability (Trametinib + Alpelisib; first compound 0.025 µM): 0.956 | relative viability (Trametinib + Alpelisib; first compound 0.07906 µM): 0.876 | relative viability (Trametinib + Alpelisib; first compound 0.25 µM): 0.945
